This is an account of results in patent publication US5583144A, “Methods for treating erectile impotence” (priority 1995, dated 1996).

Entries after “also recorded” stand apart in the source; their conditions may differ.

Series [1] has as its system vascular alpha-adrenergic receptors. The following applies: epinephrine 1.0 ug/kg iv; all rats tested. The method, then:
(§1) Eight male normotensive Sprague-Dawley rats weighing between 350 to 380 grams were used in these studies. Animals were fed and watered ad libitum in a temperature (22 degrees and humidity (50%) controlled vivarium with a light dark cycle of 12 hours.
Epinephrine, D,L-piperoxan, and phentolamine (Sigma Chemical Company; St. Louis, Mo.) were solubilized in 0.9% saline on the day of the experiment. All doses were calculated on free base weight. The rats were anesthetized with pentobarbital sodium 60 mg/kg i.p. All animals were checked for depth of anesthesia before proceeding further using the corneal reflex and toe pinch response as indicators. The ventral surface of the neck was shaven and a longitudinal incision, approximately 2 cm long, was made on the ventral surface. The trachea was isolated and intubated (PE205; Intramedic, Parsippany, N.J.) . The left internal jugular vein and right common carotid artery were cannulated (PE50; Clay Adams, Becton Dickinson, Parsippany, N.J.). […] This response was quantified by measurement of the arterial blood pressure waveform. […] Arterial blood pressure was measured continuously during the length of the experiments.
Percent inhibition of the epinephrine-induced pressor effect by both phentolamine and piperoxan was used as a measure of inhibition of the alpha-adrenergic receptor. […] Percent inhibition was calculated by the following formula: [formula]

The next series concerns erectile dysfunction. The following applies: cited from earlier work; for priapism or extremely long erections following treatment for erectile dysfunction: men treated for erectile dysfunction, literature; for duration of action / erections: agents used to treat impotence, causing pain and general discomfort.
The test system of series [2] is alpha-adrenergic receptor. Briefly: Inhibition of epinephrine-induced pressor response (arterial blood pressure) in pentobarbital anesthetized rats. It is filed as in vivo, Sprague-Dawley rats. The following applies: for estimated pharmacologic half-life on alpha-adrenergic receptor antagonism: epinephrine 1.0 ug/kg iv challenge, pentobarbital anesthetized rats; for alpha-adrenergic antagonism in vivo: inhibition of the pressor effect of epinephrine challenge; for duration of action relative to that of phentolamine: 0.25 mg/kg iv each, four rats per treatment, alpha-adrenergic antagonism / duration of vasodilation (FIG. 1). The method, then:
as §1
Epinephrine, D,L-piperoxan, and phentolamine (Sigma Chemical Company; St. Louis, Mo.) were solubilized in 0.9% saline on the day of the experiment. All doses were calculated on free base weight. The rats were anesthetized with pentobarbital sodium 60 mg/kg i.p. All animals were checked for depth of anesthesia before proceeding further using the corneal reflex and toe pinch response as indicators. The ventral surface of the neck was shaven and a longitudinal incision, approximately 2 cm long, was made on the ventral surface. The trachea was isolated and intubated (PE205; Intramedic, Parsippany, N.J.) . The left internal jugular vein and right common carotid artery were cannulated (PE50; Clay Adams, Becton Dickinson, Parsippany, N.J.). The cannulas were heparinized (Sodium heparin 60 units/ml) and inserted approximately 1.5 cm into the vessels and were secured with 4-0 silk suture. The animal was placed in the supine position, and body temperature was maintained via a heat lamp. A short piece of hypodermic tubing was inserted into the venous and arterial cannulas, and each cannula connected to a three way stopcock via a section of PE50 and 23 gauge Luer stub. The jugular line was used for administration of epinephrine and either piperoxan or phentolamine. In order to directly record arterial blood pressure, the carotid arterial line was connected to an electronic blood pressure transducer (P23db; Gould Electronics, Oxnard, Calif.). The blood pressure transducer was connected to a Gould transducer amplifier and a thermal recorder for the purpose of recording the arterial blood pressure waveform. After a stable blood pressure baseline was obtained, epinephrine was injected intravenously at a dose of 1.0 ug/kg for the purpose of inducing an alpha-adrenergic receptor mediated pressor response. This response was quantified by measurement of the arterial blood pressure waveform. After the epinephrine-induced pressor effect returned to baseline, either phentolamine or piperoxan was administered intravenously at a dose of 0.25 mg/kg. After dosing with piperoxan and phentolamine, epinephrine injections were repeated at 5, 10, 15, 20, 30, 40, 50, and 60 minutes post dosing. Arterial blood pressure was measured continuously during the length of the experiments.
Percent inhibition of the epinephrine-induced pressor effect by both phentolamine and piperoxan was used as a measure of inhibition of the alpha-adrenergic receptor. As stated previously, inhibition of the alpha receptor results in vasodilatation. Percent inhibition was calculated by the following formula: [formula]

The conditions of series [3]: in water and acid solutions; cited from earlier work.
The conditions of series [4]: cited from earlier work.

For the compound `CNC[C@H](O)c1ccc(O)c(O)c1` [epinephrine], the “arterial blood pressure change” value in series [1] is on record as “marked increase in arterial blood pressure in all rats tested”.
On to `COc1ccc(Cc2nccc3cc(OC)c(OC)cc23)cc1OC` [papaverine], for which the “priapism or extremely long erections following treatment for erectile dysfunction” value in the series on erectile dysfunction is given as “priapism or extremely long erections”.
As to `Cc1ccc(N(CC2=NCCN2)c2cccc(O)c2)cc1` [phentolamine], in series [2] (0.25 mg/kg iv), the “estimated pharmacologic half-life on alpha-adrenergic receptor antagonism” value is on record as “greater than 60 minutes” and the “alpha-adrenergic antagonism in vivo” value was “inhibitory to the pressor-induced effect of epinephrine challenge”. Moreover, in the series with erectile dysfunction, the “duration of action / erections” value is “extremely long duration of action, resulting in erections which last several hours” and the “priapism or extremely long erections following treatment for erectile dysfunction” value is reported as “priapism or extremely long erections”.
For `COC(=O)[C@@H]1[C@H]2C[C@H]3c4[nH]c5ccccc5c4CCN3C[C@@H]2CC[C@@H]1O` [yohimbine], the “duration of action / erections” value in the series with erectile dysfunction was “extremely long duration of action, resulting in erections which last several hours”.
Turning to `O=c1n(CCCN2CCN(c3cccc(Cl)c3)CC2)nc2ccccn12` [trazodone], the “priapism or extremely long erections following treatment for erectile dysfunction” value with erectile dysfunction is recorded as “priapism or extremely long erections”.
As for `c1ccc2c(c1)OCC(CN1CCCCC1)O2` (racemic) [piperoxan], the “duration of action relative to that of phentolamine” value in series [2] is “approximately one-half”. Moreover, the “duration of action relative to that of phentolamine” value in series [2] (listed as Piperoxan) was “approximately half”. Further, the “biological half-life / duration of action compared with phentolamine” value in series [2] (0.25 mg/kg iv, FIG. 1) was “much shorter biological half-life; also recorded: shorter duration of action than phentolamine”. Besides, in series [2] (0.25 mg/kg iv), the “estimated pharmacologic half-life on alpha-adrenergic receptor antagonism” value was “approximately 30 minutes” and the “alpha-adrenergic antagonism in vivo” value is “inhibitory to the pressor-induced effect of epinephrine challenge; also recorded: alpha-adrenergic antagonist in vivo”. Also, in series [3], the solubility result is recorded as “freely soluble”. For the same compound, the “storage stability of aqueous solution” value in series [4] (aqueous solution at pH 5.0, room temperature) is reported as “many months of storage at room temperature”. Moreover, the “stability of aqueous solution to autoclaving” value in series [4] (aqueous solution at pH 5.0) is recorded as “stable to autoclaving”. Besides, the hygroscopicity of crystals entry in series [4] (crystals) is given as “not hygroscopic”. In addition, the stability of crystals entry in series [4] (crystals, light, air, normal storage temperatures) was “stable to light, air, and normal storage temperatures”.
Regarding `CC(COc1ccccc1)N(CCCl)Cc1ccccc1` (stereo not shown) [phenoxybenzamine], the “priapism or extremely long erections following treatment for erectile dysfunction” value in the series with erectile dysfunction is recorded as “priapism or extremely long erections”.
